Columns and labels:
[1] = tested on: PC-3 prostate cancer cells; assay: MTT cell viability assay, PC-3; assay type: cell-based; conditions: Homo sapiens; PC-3, MTT, 24 hours
Description: (§1) Cell lines, cell culture, biochemical reagents, and antibodies. MiaPaCa-2, AsPC-1, and Panc-1 human pancreatic cancer cells, MCF-7 and MDA-MB-231 breast cancer cells, SCC4 and SCC2059 oral cancer cells, PC-3 and LNCaP prostate cancer cells, H157, H460, H1975, PC-9 and H1650 lung cancer cells were obtained from the American Type Culture Collection (ATCC, Manassas, Va.). All these cells were maintained in recommended growth medium (RPMI 1640 or DMEM) supplemented with 10% fetal bovine serum (FBS) (Invitrogen, Carlsbad, Calif., USA) and antibiotics at 37° C. in a humidified incubator containing 5% CO2. For SILAC experiments, PC-9 cells were grown in SILAC DMEM medium (Thermo Fisher) supplemented with 10% dialyzed FBS and 100 μg/mL each of unlabeled L-arginine and L-lysine (light medium) or ^13C/^15N stable isotope-labeled L-arginine and L-lysine (heavy medium). […]
(§2) Cell viability assays. Drug effects on cell viability was assessed by 3-(4,5-dimethylthiazol-2-yl)-2,5-diphenyltetrazolium bromide ([…]) assays. […] The medium was then removed from each well and replaced with DMSO to dissolve the reduced MTT dye for subsequent colorimetric measurement of absorbance at 560 nm. Cell viabilities are expressed as percentages of viable cells relative to the corresponding vehicle-treated control group.

[2] = tested on: LNCaP prostate cancer cells; assay: MTT cell viability assay, LNCaP; assay type: cell-based; conditions: Homo sapiens, 24 hours
Description: as §1, §2

[3] = tested on: H1650 lung cancer cells; assay: MTT cell viability assay, H1650; assay type: cell-based; conditions: Homo sapiens, NCI-H1650, H1650 (mutant EGFR), 24 hours
Description: as §1, §2

[4] = tested on: PC-9 lung cancer cells; assay: MTT cell viability assay, PC-9; assay type: cell-based; conditions: Homo sapiens, PC-9 (mutant EGFR), 24 hours
Description: as §1, §2

[5] = tested on: H460 lung cancer cells; assay: MTT cell viability assay, H460; assay type: cell-based; conditions: Homo sapiens, NCI-H460, H460 (wild type EGFR), 24 hours
Description: as §1, §2

[6] = target: T1, recombinant PKM1 (Homo sapiens, UniProt P14618); assay: Recombinant PKM1 kinase activity assay; assay type: biochemical; conditions: after 20 min of exposure
T1 construct: purchased Sigma-Aldrich SRP0415
T1 sequence (P14618 1-531 isoform P14618-2): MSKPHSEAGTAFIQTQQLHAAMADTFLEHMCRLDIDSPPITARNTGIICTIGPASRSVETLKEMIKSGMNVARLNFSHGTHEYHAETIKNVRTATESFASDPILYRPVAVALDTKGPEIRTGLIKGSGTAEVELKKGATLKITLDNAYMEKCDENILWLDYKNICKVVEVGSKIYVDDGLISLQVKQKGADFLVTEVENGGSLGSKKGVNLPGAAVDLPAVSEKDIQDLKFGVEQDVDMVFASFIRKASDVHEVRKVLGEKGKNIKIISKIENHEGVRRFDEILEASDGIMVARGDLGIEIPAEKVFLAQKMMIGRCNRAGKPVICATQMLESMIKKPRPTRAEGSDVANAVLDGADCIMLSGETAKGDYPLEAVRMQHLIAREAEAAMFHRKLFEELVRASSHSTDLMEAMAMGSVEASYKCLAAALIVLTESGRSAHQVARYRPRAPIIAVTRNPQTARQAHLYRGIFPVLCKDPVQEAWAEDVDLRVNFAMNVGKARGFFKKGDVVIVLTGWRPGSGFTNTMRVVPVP
Description: (§3) As this cell-based kinase assay could not rule out the involvement of PKM1, we examined the abilities of compound 1 to inhibit the kinase activity of recombinant PKM2 (SAE0021, Sigma-Aldrich) versus recombinant PKM1 (SRP0415, Sigma-Aldrich) using a commercial PKM assay kit. […] In brief, PC-9 cells were exposed to different concentrations of compound 2 in the presence of compound 1 (1 μM) for 1 hour, lysed, and the cell lysates were treated with biotin-azide, followed by streptavidin bead pulldown under the aforementioned conditions. […] The antigen of compound 1 was prepared by coupling this small molecule with cysteine residues of ovalbumin, which was then used for immunization in guinea pigs.
Pyruvate kinase activity assays. PC-9 cells were seeded into 6 cm dishes at a concentration of 5×10^5 cells/mL. After 24 hours, cells were treated with 0.25 μM compound 1 or DMSO for 6 hours. The pyruvate kinase activity of compound 1-treated PC-9 and vehicle control cells was measured by using a commercial colorimetric assay kit from BioVision (Milpitas, Calif., USA) according to the manufacturer's protocol. In addition, to verify the specificity of compound 1 toward PKM2 versus PKM1, the inhibition of the kinase activity of recombinant PKM1 (SRP0415, Sigma-Aldrich) and recombinant PKM2 (SAE0021, Sigma-Aldrich) by compound 1 was conducted using the aforementioned assay kit.

[7] = tested on: ROS production in PC-9 cells; assay: ROS assay; assay type: cell-based, human; conditions: 0.25 μM and 0.5 μM, 6 hours
Description: ROS assay. ROS detection was performed by using a fluorescent assay kit from BioVision (Milpitas, Calif., USA) according to the manufacturer's instructions. Briefly, PC-9 cells were seeded into 96-well plate at a cell density of 2×10^4 cells per well. After 24 hours, cells were treated with indicated concentration of compound 1 or DMSO for 6 hours. After treatment, cells were washed in ROS assay buffer and then incubated with 1×ROS label diluted in ROS assay buffer for 45 min at 37° C. in the dark. The ROS label was removed, and the fluorescence at Ex/Em 495/529 nm in end point mode was measured immediately after 100 μl of ROS assay buffer was added to each well.

[8] = target: PKM2 (Homo sapiens, UniProt P14618); assay: Gel-based ABPP competition for PKM2 binding in PC-9 cells; design: PC-9 cells were pre-incubated with 1 μM compound 1 for 1 hour, and treated with compound 2; endogenous in cells; host or cells: PC-9 cells; conditions: 1 μM compound 1, 1 hour, Western blot
PKM2, sequence (P14618 whole entry): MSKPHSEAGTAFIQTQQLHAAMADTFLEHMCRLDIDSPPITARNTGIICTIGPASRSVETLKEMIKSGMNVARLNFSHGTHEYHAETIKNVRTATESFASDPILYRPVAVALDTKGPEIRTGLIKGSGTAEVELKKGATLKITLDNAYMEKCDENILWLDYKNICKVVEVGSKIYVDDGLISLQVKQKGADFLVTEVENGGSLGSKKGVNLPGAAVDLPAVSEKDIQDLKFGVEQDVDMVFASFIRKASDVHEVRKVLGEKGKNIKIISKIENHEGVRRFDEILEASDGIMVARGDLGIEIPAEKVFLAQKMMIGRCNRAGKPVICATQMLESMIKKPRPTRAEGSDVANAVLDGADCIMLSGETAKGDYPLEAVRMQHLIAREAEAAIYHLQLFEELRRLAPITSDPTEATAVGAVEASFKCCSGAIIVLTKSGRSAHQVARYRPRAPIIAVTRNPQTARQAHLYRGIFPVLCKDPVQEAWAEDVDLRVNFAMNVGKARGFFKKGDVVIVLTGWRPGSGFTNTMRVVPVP
Description: as §3
Gel-based ABPP. PC-9 cells (2×10^6) were seeded in DMEM growth medium in 10-cm plates. After overnight incubation, the growth medium was replaced with fresh medium, followed by the addition of 1 μM compound 1 or DMSO control. After 1 hour, the ABPP probe compound 2 at 0.5, 1 and 2 μM was then added, and incubated at 37° C. for an additional 1 hour. The cell lysates were subjected to copper-catalyzed Click reaction, and biotin-tagged proteins were treated with 50 μL of streptavidin-coupled magnetic beads for 16 hours at 4° C. After incubation, cell lysates were washed by PBS containing 0.5% SDS three times to remove nonspecific binding. […]

## C#CC(=O)Nc1ccc(-n2nc(CCC(=O)NC)cc2-c2ccc(-c3ccc(C(F)(F)F)cc3)cc2)cc1 [compound 1, N-(4-(3-(3-(Methylamino)-3-oxopropyl)-5-(4′-(trifluoromethyl)-[1,1′-biphenyl]-4-yl)-1H-pyrazol-1-yl)phenyl)propiolamide]
[1]
  IC50: 600 nM
[2]
  IC50: > 2000 nM
[3]
  IC50: 200 nM
[4]
  IC50: 500 nM
[5]
  IC50: 1500 nM
[6]
  inhibition of kinase activity of recombinant PKM1: no appreciable inhibition
[7]
  ROS level: reduced the ROS level
[8]
  competition with ABPP probe compound 2 for PKM2 binding: binding of the ABPP probe to PKM2 was attenuated

Reference: patent US11117888B2, “Irreversible inhibitors of pyruvate kinase M2 and the use thereof” (China Medical University, priority 2020, dated 2021)
